Test results: paper PMC8981980 (Journal of medicinal chemistry, 2022)
“Also recorded” adds a separate entry of the source. Blank lines part the entries; values can stand above or below the molecule they belong to.

Tests used:
[1] = cited from earlier work
CSC stemness = details: clonogenic colony formation assay; cited from earlier work
CHD1L = molecular target: T1, CHD1L (Homo sapiens, UniProt Q86WJ1); assay: SAR summary from cat-CHD1L inhibition and cell-based assays; details: SAR statement relative to parent / 1-carbon analogs
T1 sequence (Q86WJ1 41-540 limits assumed): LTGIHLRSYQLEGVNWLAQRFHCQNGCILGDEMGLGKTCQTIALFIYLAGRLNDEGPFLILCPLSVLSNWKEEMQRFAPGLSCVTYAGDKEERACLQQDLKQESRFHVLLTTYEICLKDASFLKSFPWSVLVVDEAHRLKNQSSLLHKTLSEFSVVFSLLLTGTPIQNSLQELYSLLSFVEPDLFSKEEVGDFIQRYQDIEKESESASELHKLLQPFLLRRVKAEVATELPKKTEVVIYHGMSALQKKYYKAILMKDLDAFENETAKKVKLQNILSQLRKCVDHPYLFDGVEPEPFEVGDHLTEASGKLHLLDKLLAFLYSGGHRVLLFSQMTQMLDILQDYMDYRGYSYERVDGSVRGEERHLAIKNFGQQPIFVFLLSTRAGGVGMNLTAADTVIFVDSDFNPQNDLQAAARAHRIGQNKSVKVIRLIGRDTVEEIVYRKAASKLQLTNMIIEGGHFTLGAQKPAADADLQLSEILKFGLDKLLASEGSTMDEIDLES

SW620 tumor organoids = assay: SW620 tumor organoid viability; type: cell-based; details: compared to 6.1, 6.2 and 6.3; SI Table S1
[2] = In vitro mouse microsomal stability; details: compared with 6.0 / other tested CHD1Li
[3] = test system: HCT116 M-Phenotype tumor organoids (VimPro-GFP / EcadPro-RFP); assay: EMT dual-reporter 3D high-content imaging, HCT116 M-Phenotype tumor organoids; type: cell-based; details: as treatment dose increases
[4] = test system: SW620 isolated M-Phenotype flank tumors; assay: Xenograft antitumor efficacy study; type: in vivo, athymic nude mice

SMILES: Cc1cc(Nc2ccc(NC(=O)Cc3cccs3)cc2)nc(N2CCCC2)n1 [6.0, N-(4-((6-methyl-2-(pyrrolidine-1-yl)pyrimidin-4-yl)amino)phenyl)-2-(thiophen-2-yl)acetamide]
- maximum tolerated dose ([1]; intraperitoneal (IP) daily over five days): 50 mg/kg
- liver toxicity ([1]; mice, 50 mg/kg IP daily over five days): does not display any liver toxicity
- CSC stemness (CSC stemness): significantly inhibits CSC stemness

SMILES: Cc1nc(N2CCCC2)nc(Nc2ccc(NC(=O)Cc3cccs3)cc2)c1F [6.1, N-(4-((5-fluoro-6-methyl-2-(pyrrolidin-1-yl)pyrimidin-4-yl)amino)phenyl)-2-(thiophen-2-yl)acetamide]
- biological activity (cat-CHD1L inhibition and cell-based models) (CHD1L): loss of inhibitor activity; also recorded: significant loss in activity

- biological activity (cat-CHD1L inhibition and cell-based models) (CHD1L): loss of inhibitor activity
SMILES: O=C(Cc1cccs1)Nc1ccc(Nc2nc(N3CCCC3)ncc2F)cc1 [6.2, N-(4-((5-fluoro-2-(pyrrolidin-1-yl)pyrimidin-4-yl)amino)phenyl)-2-(thiophen-2-yl)acetamide]

SMILES: Cc1nc(N2CCCC2)nc(N(C)c2ccc(NC(=O)Cc3cccs3)cc2)c1F [6.3, N-(4-((5-fluoro-6-methyl-2-(pyrrolidin-1-yl)pyrimidin-4-yl)(methyl)amino)phenyl)-2-(thiophen-2-yl)acetamide]
- biological activity (cat-CHD1L inhibition and cell-based models) (CHD1L): loss of inhibitor activity; also recorded: diminished biological activity

SMILES: Cc1cc(Nc2ccc(NC(=O)c3c[nH]c4ccccc34)cc2)nc(N2CCCC2)n1 [6.4, N-(4-((6-methyl-2-(pyrrolidin-1-yl)pyrimidin-4-yl)amino)phenyl)-1H-indole-3-carboxamide]
- cell-based antitumor activity (potency) (SW620 tumor organoids): maintained potency
- metabolic stability to mouse liver microsomes [2]: increased the metabolic stability

SMILES: Cc1cc(Nc2ccc(NC(=O)Cc3c[nH]c4ccccc34)cc2)nc(N2CCCC2)n1 [6.5, 2-(1H-indol-3-yl)-N-(4-((6-methyl-2-(pyrrolidin-1-yl)pyrimidin-4-yl)amino)phenyl)acetamide]
- EcadPro-RFP promoter activity [3]: upregulation
- VimPro-GFP promoter activity [3]: marked downregulation
- metabolic stability to mouse liver microsomes [2]: increased the metabolic stability

SMILES: Cc1cc(Nc2ccc(NC(=O)CCc3c[nH]c4ccccc34)cc2)nc(N2CCCC2)n1 [6.6, 3-(1H-indol-3-yl)-N-(4-((6-methyl-2-(pyrrolidin-1-yl)pyrimidin-4-yl)amino)phenyl) propanamide]
- biological activity (cat-CHD1L inhibition and cell-based models) (CHD1L): loss of activity

- biological activity (cat-CHD1L inhibition and cell-based models) (CHD1L): loss of activity
SMILES: Cc1cc(Nc2ccc(NC(=O)CCCc3c[nH]c4ccccc34)cc2)nc(N2CCCC2)n1 [6.7, 4-(1H-indol-3-yl)-N-(4-((6-methyl-2-(pyrrolidin-1-yl)pyrimidin-4-yl)amino)phenyl)butanamide]

SMILES: Cc1cc(Nc2ccc(NC(=O)/C=C/c3c[nH]c4ccccc34)cc2)nc(N2CCCC2)n1 [6.8, (E)-3-(1H-indol-3-yl)-N-(4-((6-methyl-2-(pyrrolidin-1-yl)pyrimidin-4-yl)amino)phenyl) acrylamide]
- biological activity (cat-CHD1L inhibition and cell-based models) (CHD1L): restores activity

- biological activity (cat-CHD1L inhibition and cell-based models) (CHD1L): significant loss in activity
SMILES: COc1cnc(N2CCCC2)nc1Nc1ccc(NC(=O)Cc2cccs2)cc1 [6.10, N-(4-((5-methoxy-2-(pyrrolidin-1-yl)pyrimidin-4-yl)amino)phenyl)-2-(thiophen-2-yl)acetamide]

SMILES: Cc1cc(Nc2ccc(NC(=O)Cc3cc(Br)cs3)cc2)nc(N2CCCC2)n1 [6.11, 2-(4-bromothiophen-2-yl)-N-(4-((6-methyl-2-(pyrrolidin-1-yl)pyrimidin-4-yl)amino)phenyl) acetamide]
- tolerability / gross toxicity ([4]; PO 75 mg/kg and 125 mg/kg 5-days/week over 30 days): no adverse gross toxicity
- tumor volume ([4]; PO 75 mg/kg and 125 mg/kg 5-days/week over 30 days, from day 20, highly significant after 28 days, vs vehicle): significant decrease in tumor volume
- body weight ([4]; during the treatment period, PO 28 days): increased body weight
- biological activity (cat-CHD1L inhibition and cell-based models) (CHD1L): most promising in vitro biological activity
- metabolic stability to mouse liver microsomes [2]: most metabolically stable; also recorded: increased the metabolic stability

- biological activity (cat-CHD1L inhibition and cell-based models) (CHD1L): significant loss of activity
SMILES: Cc1cc(Oc2ccc(NC(=O)Cc3cccs3)cc2)nc(Cl)n1 [6.12, N-(4-((2-chloro-6-methylpyrimidin-4-yl)oxy)phenyl)-2-(thiophen-2-yl)acetamide]

- biological activity (cat-CHD1L inhibition and cell-based models) (CHD1L): significant loss of activity
SMILES: Cc1cc(Oc2ccc(NC(=O)Cc3cccs3)cc2)nc(N2CCCC2)n1 [6.13, N-(4-((6-methyl-2-(pyrrolidin-1-yl)pyrimidin-4-yl)oxy)phenyl)-2-(thiophen-2-yl)acetamide]

- biological activity (cat-CHD1L inhibition and cell-based models) (CHD1L): significant loss of activity
SMILES: Cc1cc(Oc2ccc(NC(=O)c3c[nH]c4ccccc34)cc2)nc(N2CCCC2)n1 [6.14, N-(4-((6-methyl-2-(pyrrolidin-1-yl)pyrimidin-4-yl)oxy)phenyl)-1H-indole-3-carboxamide]

- biological activity (cat-CHD1L inhibition and cell-based models) (CHD1L): significant loss in biological activity
SMILES: Cc1cc(Nc2ccc(NC(=O)Cc3cccs3)cc2)nc(N2CCOCC2)n1 [6.15, N-(4-((6-methyl-2-morpholinopyrimidin-4-yl)amino)phenyl)-2-(thiophen-2-yl)acetamide]

SMILES: Cc1cc(Nc2ccc(NC(=O)Cc3cc(Cl)nc4ccccc34)cc2)nc(N2CCCC2)n1 [6.31]
- metabolic stability to mouse liver microsomes [2]: increased the metabolic stability
